Experimental data taken from patent US20250109504A1, “HETEROCYCLIC NON-TRIAZOLE COMPOUNDS AND METHODS FOR INHIBITING CORROSION IN INDUSTRIAL WATER TREATMENT” (CHEMTREAT, INC., priority 2023, published 2025).

Assays:
[1] = LPR corrosion test of copper coupons in synthetic water with free chlorine (Gamry corrosion cell); settings: for deterioration in corrosion resistance when free chlorine is added: FAC 1 ppm after 1 hr
Procedure: Several classes of compounds at various concentrations were tested to determine their potential to inhibit corrosion of copper alloy in aqueous systems as shown in Table 1 below.
1 liter samples of synthetic water were each dosed with 5 ppm of a different glucamide compound (A, B, C, D) according to Formula (I) above and 50 ppm of a standard scale inhibitor. Another 1 liter sample of synthetic water was dosed with 4 ppm of tolyltriazole and 50 ppm of the standard scale inhibitor product.
The apparatus used for the corrosion testing was a Gamry Multiport Corrosion Cell and Gamry Reference 600+ potentiostat with multiplexor. Copper coupons (CDA110) were added to the sample cells, and the cells were heated to 50° C. and maintained at this temperature throughout the testing. The cells were continuously stirred at a speed of 350 rpm. A cylindrical working electrode was submerged into the test solutions, and an LPR sweep (linear polarization resistance) was performed every hour for 18 hours. After the one hour mark, 1 ppm of free chlorine was dosed into the corrosion cell.

[2] = Solubility in sodium hydroxide (NaOH); type: physicochemical; settings: solubilized in sodium hydroxide (NaOH)
Description: Moreover, conventional treatment methods involve solubilizing corrosion inhibitors in sodium hydroxide (NaOH). Solubility of benzimidazoles and polymeric acids such as 4,5-imidazoledicarboxylic acid in NaOH is low, i.e., less than 2%. […] These and other issues are addressed by the present disclosure.

Solubility in NaOH [2]	Molecule	corrosion inhibition properties (corrosion rates, FIG. 1) as compared to the triazole inhibitors ([1]; Example 1, IMDCC 5, 2.5, 1 ppm vs HST 0.5/0.25/0.1 ppm and TTA 0.5 ppm, CDA110, 50° C., entire 18 hour period)	deterioration in corrosion resistance when free chlorine is added ([1]; Example 1, IMDCC 5, 2.5, 1 ppm, CDA110, 50° C.)	corrosion inhibition properties (corrosion rates, FIG. 2) as compared to the triazole inhibitors ([1]; Example 2, IMDCC 1 ppm, CT1 + IMDCC 100 ppm + 1 ppm vs HST 0.5 ppm, CDA110, 50° C., entire 18 hour period)	deterioration in corrosion resistance when free chlorine is added ([1]; Example 2, IMDCC 1 ppm, CT1 + IMDCC 100 ppm + 1 ppm, unlike the CT1 inhibitor)	corrosion inhibition properties (corrosion rates, FIG. 3) as compared to the triazole inhibitors ([1]; Example 3, IMDCC 2.0, 1 ppm, HST + IMDCC 0.10+0.90 to 0.90+0.10 ppm vs HST 1/0.5/0.25 ppm, CDA110, 50° C., entire 18 hour period)	deterioration in corrosion resistance when free chlorine is added ([1]; Example 3, IMDCC 2.0, 1 ppm, HST + IMDCC 0.10+0.90 to 0.90+0.10 ppm)	corrosion inhibition properties (corrosion rates, FIG. 4) as compared to the triazole inhibitors ([1]; Example 4, IMDCC 2.0, 1 ppm, CT2 + IMDCC 50 ppm + 1 ppm, 25 ppm + 2 ppm, CDA110, 50° C., entire 18 hour period)	deterioration in corrosion resistance when free chlorine is added ([1]; Example 4, IMDCC 2.0, 1 ppm, CT2 + IMDCC 50 ppm + 1 ppm, 25 ppm + 2 ppm, unlike the CT2 inhibitor)
–	Imidazole dicarboxylate [IMDCC]	superior corrosion inhibition properties	do not exhibit any substantial deterioration	superior corrosion inhibition properties	do not exhibit any substantial deterioration	superior corrosion inhibition properties	do not exhibit any substantial deterioration	superior corrosion inhibition properties	do not exhibit any substantial deterioration
less than 2%	O=C(O)c1nc[nH]c1C(=O)O [4,5-imidazoledicarboxylic acid]	–	–	–	–	–	–	–	–
